Data: patent US11844801B2, “Oral compositions of MK2 pathway inhibitor for treatment of immune conditions” (priority 2020, dated 2023)
Values after ≈ are worked out from the molar mass of the structure shown. Values joined by “and” are separate entries in the source; they are usually repeats but may differ in a detail not shown here. Identical values can stand only once.

How the values were obtained:
IL-1β = assay: Ex vivo LPS-stimulated IL-1β in blood of dosed healthy subjects, PK/PD inhibitory Emax model; parameters: species or system human
Description: Blood samples of 10 mL were collected for PD analysis. For the SAD cohorts, blood was collected before dosing and 1, 12, and 24 hours after dosing. For the MAD cohorts, on day 1 blood was collected before the morning dose and 4 and 12 hours after the morning dose (prior to the evening dose); on day 7, blood was collected before the morning dose and 4 and 12 hours after the morning dose.
Additional details of the assays for analyzing p-HSP27 and cytokines are included in the Supplementary Information.
Pharmacodynamics. PD data analysis was conducted using Microsoft Excel 2010 (Microsoft, Redmond, WA), Meso Scale Discovery Workbench® analysis software (Rockville, MD), and Phoenix WinNonlin, version 8.2.
Sample Preparation for Cytokine Analysis. For each sample, 180 μL aliquots were transferred into 7 wells of a round bottom 96 well tissue culture polystyrene low evaporation plate. […] No outer wells on the plates were used and all wells surrounding the samples contained 200 μL of phosphate buffered saline.
DMSO was added to all wells in groups ‘A’ and ‘C’ to a final concentration of 0.1% ([…] of a 2% DMSO solution in DMEM containing 10% FBS and 1% penicillin/streptomycin/glutamine). […] Samples were mixed gently for 30 seconds on a plate shaker using pin tools, then placed in an incubator at 37° C./5% CO2 for 1 hour.
Samples in groups ‘A’ and ‘B’ were stimulated with lipopolysaccharide at a final concentration of 100 ng/mL. A stock solution of lipopolysaccharide at 1 mg/mL in DMEM containing 10% FBS and 1% penicillin/streptomycin was diluted to […] in DMEM containing 10% FBS and 1% penicillin/streptomycin, and […] of this working solution was added per well of blood for all samples in groups ‘A’ and ‘B’. […] of DMEM containing 10% FBS only was added per well of blood for all samples in group ‘C’ (unstimulated samples). Samples were mixed gently for 30 seconds on a plate shaker using pin tools, then placed in an incubator at 37° C./5% CO2 for 5 hours.
Following the incubation, the plates were removed from the incubator and sealed with adhesive clear plate seals. The plates were then centrifuged for 10 minutes at 1800×g at room temperature. […] of plasma was removed from each well and transferred to a 96-well polypropylene round bottom master plate, which was then sealed and frozen at −80° C. until all samples from the respective cohort were generated. Once all samples from a given cohort were generated, the samples were analyzed for cytokine (TNF-α, IL-1b, IL-6, and IL-8) production using Meso Scale Discovery Technology.
Analysis of Cytokine Levels Using Meso Scale Discovery Technology. All lipopolysaccharide plasma samples were analyzed for cytokine production with a V-Plex Human Proinflammatory Panel II (4-Plex) Kit from Meso Scale Discovery (Rockville, MD). The master plates containing the plasma samples were thawed on ice, and a daughter plate consisting of a 25-fold dilution of each plasma sample (3 μL of plasma plus 72 μL of Meso Scale Discovery Diluent 2) was generated for each master plate. The diluted plasma samples from the daughter plates were used in the cytokine analysis. The Meso Scale Discovery 4-plex plates were washed 3 times with 150 μL/well of wash buffer (1×KPL phosphate buffered saline with Tween 20 from SeraCare [Milford, MA]). Prepared calibrators and the samples from the daughter plates were added to the washed Meso Scale Discovery 4-plex plates at 50 μL/well. The 4-plex plates were sealed and shaken overnight at 4° C.
After the overnight incubation, the samples were removed by decanting. The 4-plex plates were then washed 3 times with 150 μL/well of wash buffer. […]

IL-6 [1] = assay: IL-1β stimulated IL-6 production in human whole blood; format: cell-based
Description: (§1) Compounds were serially diluted in 100% DMSO (Sigma-Aldrich, D2650) followed by a 10× dilution into RPMI (Gibco, 11875). After the one-hour incubation with the compounds or vehicle, 2 μL of IL-1β (R&D, 201-LB-010) in RPMI (Gibco, 11875) was added for a final concentration of 0.5 μg/mL to each well except for the no stimulus wells. […]

[2] = Phase 2a RA study: Hand-Wrist MRI RAMRIS and CARLOS; format: in vivo, human; conditions: for Carlos Cartilage Loss, mean / RAMRIS Erosion Score, mean / RAMRIS Osteitis Score, mean / RAMRIS Synovitis Score, mean / Carlos Cartilage Loss, change from baseline, mean / RAMRIS Erosion Score, change from baseline, mean / RAMRIS Osteitis Score, change from baseline, mean / RAMRIS Synovitis Score, change from baseline, mean: n = 15
TNF-α = assay: IL-1β stimulated TNF-α production in human whole blood; format: cell-based
Description: as §1

IL-6 [3] = assay: R848 stimulated IL-6 production in human whole blood; format: cell-based; conditions: R848, 0.5 ug/mL, 5 hr
Description: Human whole blood assays were performed as described above with the exceptions listed below. […] Compounds were serially diluted in 100% DMSO (Sigma-Aldrich, D2650) followed by a 10× dilution into RPMI (Gibco, 11875). After the one-hour incubation with the compounds or vehicle, 2 μL of R848 (InvivoGen, tlrl-r848) in RPMI (Gibco, 11875) was added for a final concentration of 0.5 μg/mL to each well except for the no stimulus wells. After five hours of incubation with R848, plasma was harvested and assayed for TNF-α, IL-1β, IL-6 and IL-8 using Meso Scale Discovery Technology V-plex human cytokine kits according to the kit protocol.

IL-1α = assay: Human PBMC LPS stimulated IL-1α biosynthesis; format: cell-based; conditions: hPBMC, 100 ng/mL, 24 hr
[4] = Human Whole Blood, IL-1β, 10 ng/mL, 5 hr
[5] = most severe hand, baseline, 50 mg BID arm
[6] = most severe hand, week 12, 50 mg BID
[7] = other hand, baseline, 50 mg BID arm

For Cc1cnc(-c2ccnc(C(C)(C)O)n2)cc1-n1c(C)cc(OCc2ncc(F)cc2F)c(Cl)c1=O (single isomer, unassigned) [ATI-450, 3-chloro-4-((3,5-difluoropyridin-2-yl)methoxy)-2′-(2-(2-hydroxypropan-2-yl)pyrimidin-4-yl)-5′,6-dimethyl-2H-[1,4′-bipyridin]-2-one], the “IL-1β inhibition versus baseline” value (IL-1β; 50 mg BID MAD cohort) was no more than 83.0%, the “Cmax (Multiple of IC80)” value (IL-1β; 50 mg BID, day 7) was 5.4x and the “Ctrough (Multiple of IC80)” value (IL-1β; 50 mg BID, day 7) was 2.2x. The IC80 (IL-1β; Homo sapiens, calculated from IC50, combined SAD and MAD data, read-out: IC80, plasma concentration at 80% of maximal inhibition) was 0.0408 µg/mL, the IC50 (IL-1β; Homo sapiens, inhibitory Emax model, combined SAD and MAD data, read-out: IC50, plasma concentration at half maximal inhibition) was 0.0102 µg/mL and the “IC80, plasma concentration at 80% of maximal inhibition” value (IL-1β; calculated from IC50, combined SAD and MAD data) was 0.0408 µg/mL. For the same compound, the “Imax, maximum percent inhibition” value (IL-1β; inhibitory Emax model) was 74% and 74.3%, the IC50 (IL-6 [1]; [4]) was 11.1 ± 3.8 nM and the IC80 (IL-6 [1]; human whole blood) was 0.041 ± 0.02 µg/mL (≈ 0.0798 µM). For the same compound, the “joint destruction and synovitis by MRI” value ([2]; 50 mg BID plus MTX, 12 weeks) was “prevents the progression of joint destruction and provides significant improvement in synovitis”, the “Carlos Cartilage Loss, mean” value [2, 5] was 7.6 and the “RAMRIS Erosion Score, mean” value [2, 5] was 13.27. The “RAMRIS Osteitis Score, mean” value [2, 5] was 2.93, the “RAMRIS Synovitis Score, mean” value [2, 5] was 6.1 and the “Carlos Cartilage Loss, change from baseline, mean” value [2, 6] was 0.03. For the same compound, the “Carlos Cartilage Loss, mean” value [2, 6] was 7.63, the “RAMRIS Erosion Score, change from baseline, mean” value [2, 6] was 0.63 and the “RAMRIS Erosion Score, mean” value [2, 6] was 13.9. For the same compound, the “RAMRIS Osteitis Score, change from baseline, mean” value [2, 6] was 0.9, the “RAMRIS Osteitis Score, mean” value [2, 6] was 3.83 and the “RAMRIS Synovitis Score, change from baseline, mean” value [2, 6] was −0.17. The “RAMRIS Synovitis Score, mean” value [2, 6] was 5.93, the “Carlos Cartilage Loss, mean” value [2, 7] was 7.45 and the “RAMRIS Erosion Score, mean” value [2, 7] was 13.3. The “RAMRIS Osteitis Score, mean” value [2, 7] was 2.4, the “RAMRIS Synovitis Score, mean” value [2, 7] was 4.07 and the “Carlos Cartilage Loss, change from baseline, mean” value ([2]; other hand, week 12, 50 mg BID) was 0. For the same compound, the “Carlos Cartilage Loss, mean” value ([2]; other hand, week 12, 50 mg BID) was 7.45, the “RAMRIS Erosion Score, change from baseline, mean” value ([2]; other hand, week 12, 50 mg BID) was −0.27 and the “RAMRIS Erosion Score, mean” value ([2]; other hand, week 12, 50 mg BID) was 13.03. For the same compound, the “RAMRIS Osteitis Score, change from baseline, mean” value ([2]; other hand, week 12, 50 mg BID) was 1, the “RAMRIS Osteitis Score, mean” value ([2]; other hand, week 12, 50 mg BID) was 3.4 and the “RAMRIS Synovitis Score, change from baseline, mean” value ([2]; other hand, week 12, 50 mg BID) was 0.33. The “RAMRIS Synovitis Score, mean” value ([2]; other hand, week 12, 50 mg BID) was 4.4, the IC50 (TNF-α; [4]) was 12.2 ± 4 nM and the IC80 (TNF-α; human whole blood) was 0.031 ± 0.006 µg/mL (≈ 0.0603 µM). The IC50 (IL-6 [3]) was 79.2 ± 17.2 nM and the IC50 (IL-1α) was 31.1 nM.
